Experimental data: patent US8404665B2, “In vivo use of glutathione S-transferase activated nitric oxide donors” (University of Utah Research Foundation, priority 2002, dated 2013)

Assay: Reactivity of JS-K with GSH (HPLC-MS, pseudo-first order kinetics)
Format: physicochemical
Details: 37° C.
Description: Chromatography and Mass Spectrometry. High Performance Liquid Chromatography (HPLC) separations were carried out with a Phenomenex Luna 5 u C18(2) column (Torrance, Calif.) using a gradient of acetonitrile:water (each containing 0.1% formic acid) at a flow rate of 1 ml/min (% acetonitrile: 25% for 0-5 min followed by a linear program to 70% at 15 min).
HPLC-Mass Spectrometry (MS) studies were performed on an Agilent Capillary Series 1100 LC/MSD Ion Trap mass spectrometer with electrospray ionization in the positive ion mode (CITY, STATE). Separations were effected as above, except that the flow rate was 15 ul/min and the gradient was 10% acetonitrile for 0-5 min followed by a linear program to 70% at 15 min.
The diazeniumdiolate ion appears to resemble chloride as a leaving group in SNAr reactions (Saavedra, J. E. et al. (2001) J. Org. Chem. 66: 3090-3098). Since 1-chloro-2,4-dinitrobenzene is believed to react with GSH, it was anticipated that JS-K would be similarly converted to DNP-SG. This was indicated by HPLC-MS where there appeared to be an 85% conversion of JS-K to DNP-SG within a 30-min incubation period at 37° C. in pH 7.4 phosphate buffer. Similar results appeared in a RPMI-1640 cell culture medium. Pseudo-first order kinetic plots for the reaction of GSH with JS-K in 0.1 M phosphate buffer (pH 7.4) were obtained with GSH (1-5 mM) in large excess of the substrate. Excellent first-order behavior was observed over several half-lives, and measured first-order rate constants appeared to show a linear dependence on [GSH]. The slope and y-intercept of the line yielded values for the second-order [k2=(1.02±0.04) M^−1 s^−1] and first order [k1=(4±12)×10^−5 s^−1] rate constants for the reactions of JS-K with GSH and water, respectively, at 37° C. in 0.1 M phosphate buffer, pH 7.4. The ultraviolet spectral changes accompanying the reaction in a second cell culture medium (Dulbecco's Modified Eagle's Medium) appeared to confirm the above stated kinetic rate constants.

CCOC(=O)N1CCN(/[N+]([O-])=N/Oc2ccc([N+](=O)[O-])cc2[N+](=O)[O-])CC1 [JS-K, O^2-(2,4-dinitrophenyl) 1-[(4-ethoxycarbonyl)piperazin-1-yl]diazen-1-ium-1,2-diolate]
first order rate constant k1, reaction with water (y-intercept) (0.1 M phosphate buffer, pH 7.4): (4±12)×10^−5 s^−1
second-order rate constant k2, reaction with GSH (0.1 M phosphate buffer, pH 7.4): 1.02 ± 0.04 M⁻¹ s⁻¹
conversion of JS-K to DNP-SG (within 30-min incubation, pH 7.4 phosphate buffer): 85%
